According to patent publication US20190307754A1, “PDE9 INHIBITORS FOR TREATMENT OF PERIPHERAL DISEASES” (IMARA, INC., priority 2016, published 2019):
“Also recorded” adds a separate entry of the source.

Tests used:
[1] = target: hERG-mediated potassium currents (Homo sapiens, UniProt Q12809); experiment: in vitro hERG assay; type: cell-based; details: concentrations up through 10^−5 M
Source text: The safety pharmacology assessment of Compound P3.1 included an in vitro hERG assay, neurofunctional and respiratory studies in rats, and a cardiovascular study in beagle dogs.

[2] = Chromosome aberration study; type: cell-based
Source text: (§1) The genotoxicity evaluation of Compound P3.1 consisted of a bacterial reverse mutation assay, a chromosome aberration study, and a in vivo rat micronucleus study. Compound P3.1 was negative in all 3 assays.

[3] = system: rat; experiment: Rat female fertility study; type: in vivo; details: female rat, 25, 100, or 200 mg/kg/d oral gavage
Protocol: In a rat female fertility study, animal groups were given 0, 25, 100, or 200 mg/kg/d oral gavage of Compound P3.1. No treatment-related clinical signs were observed. […] There were no macroscopic necropsy findings that indicated an effect of Compound P3.1 administration.

[4] = Plasma, brain and eye exposure in C57Bl/6J mice; type: in vivo; details: for concentration at 30 min: male, C57Bl/6J, mouse, plasma, oral, gavage, Day 5, 30 minutes after dosing
Protocol: The exposure of both compounds was also evaluated in the plasma, brain, and eye. […] During the treatment period all animals were assessed for contextual fear conditioning and a subset of 7 animals per group was evaluated for locomotor activity. On Day 5, plasma, brain, and eye tissue were collected 30 minutes after dosing from 3 animals per treated group to measure concentrations of test item.

[5] = target: T1, MDR1 (P-gp) (Homo sapiens, UniProt P08183); experiment: Bi-directional permeability across MDCK-MDR1 cell monolayer; type: in vitro ADME; details: human
T1 construct: expressed in transfected cells; host or cells: MDCK-MDR1 cells

[6] = target: T2, MDR1 (human P-gp) efflux transporter (Homo sapiens, UniProt P08183); experiment: as above; type: in vitro ADME
T2 construct: expressed in transfected cells; host or cells: MDCK-MDR1 cells

[7] = system: HbSS-Townes mice; experiment: Microvascular stasis and hematology in HbSS-Townes mice; type: in vivo
Protocol: The ability of Compound P3.1 to reduce vaso-occulsion was assessed in HbSS-Townes transgenic sickle mice after transient hypoxia and re-oxygenation. This study assessed the effects of repeated (10 days) oral dosing of Compound P3.1 and HU on microvascular stasis and other hematological markers of sickle cell disease, after transient hypoxia and re-oxygenation, in Townes transgenic sickle mice, a mouse model of sickle cell disease (Hba^tm1(HBA)Tow Hbb^tm2(HBG1,HBB*)Tow/Hbb^tm3(HBG1,HBB)Tow/J). HbSS-Townes mice were divided into groups of 3 mice and were then dosed orally via drinking water with Compound P3.1 at 10 mg/kg/day, Compound P3.1 at 30 mg/kg/day, HU (100 mg/kg/day), or a combination of Compound P3.1 and HU (at doses of 30 and 100 mg/kg/day, respectively) for 10 days. A final group received water containing 0.08% methylcellulose, the vehicle used to prepare the test items, and served as controls. On Day 7 of treatment, the mice were implanted with dorsal skin-fold chambers (DSFC), and on Day 10 of treatment, 20-23 flowing subcutaneous venules in the DSFC window were selected and mapped. After venule selection and mapping, mice were placed in a chamber and exposed to a hypoxic atmosphere (7% O2/93% N2) for 1 hour, after which they were returned to room air. All of the selected venules were re-examined after 1 and 4 hours of re-oxygenation in room air and the number of static (no flow) venules was counted and expressed as percent stasis. On completion of these measurements, blood was collected for clinical pathology with a focus on hematological measures associated with sickle cell disease.

[8] = system: 7 key CYP enzyme isoforms; experiment: CYP enzyme inhibition in human liver microsomes; details: up through 100 μM
[9] = system: rat; experiment: In vivo rat micronucleus study
Source text: as §1

[10] = Pharmacokinetics of single oral and IV dose in Sprague Dawley rats; type: in vivo
Protocol: Blood samples were taken at 2 minutes (IV only), then 8, 15, 30 minutes, and 1, 2, 4, 8, and 24 hours after dosing and analyzed for key PK parameters. In the rats, brain samples were taken at 24 hours and analyzed for Compound P3.1. To evaluate the penetration of Compound P3.1 across the blood-brain barrier (BBB), 10 additional rats received IV Compound P3.1 3 mg/kg and plasma and brain concentrations of Compound P3.1 were determined from 2 animals at 15 minutes, 30 minutes and 1, 2, and 4 hours after dosing.

[11] = in vivo; details: rat, 250 mg/kg/day
Protocol: Animals were observed daily from the start of the dosing and body weights and food intake were recorded at regular intervals. Blood samples were collected from a subset of animals in each group at 6 time points on Day 7 for TK evaluation.

[12] = system: K562 erythroleukemic cells; experiment: HbF in cultured K562 cells; type: cell-based; details: 3 days
Protocol: K562 cells were cultured at 37° C. in IMDM® to which the required concentrations of test items or DMSO (negative control) had been added. Plated cells were maintained at 37° C. for 3 days at the end of which the presence of HbF within cells was detected by flow cytometry.

[13] = Plasma protein binding, humans; type: in vitro ADME; details: human, read-out: mean plasma fraction bound (converted)
[14] = Stability study in purified water; type: physicochemical; details: approximately 40 mg/mL in purified water, refrigerated and ambient, 8 days
Protocol: In another stability study, Compound P3.1 was dissolved at approximately 40 mg/mL of purified water, and evaluated for purity over a period of 8 days. Samples were stored at both refrigerated and ambient conditions, and tested at T=0, Day 2, and Day 8.

[15] = Compound P3.1 30 mg/kg/day, HU 100 mg/kg/day, or both, 10 days
[16] = Sprague Dawley rats, 10 mg/kg oral
[17] = rat, blood, Sprague Dawley rats, 3 mg/kg IV
[18] = rat, blood, Sprague Dawley rats, 10 mg/kg oral

hERG-mediated potassium currents, sequence (Q12809 whole entry): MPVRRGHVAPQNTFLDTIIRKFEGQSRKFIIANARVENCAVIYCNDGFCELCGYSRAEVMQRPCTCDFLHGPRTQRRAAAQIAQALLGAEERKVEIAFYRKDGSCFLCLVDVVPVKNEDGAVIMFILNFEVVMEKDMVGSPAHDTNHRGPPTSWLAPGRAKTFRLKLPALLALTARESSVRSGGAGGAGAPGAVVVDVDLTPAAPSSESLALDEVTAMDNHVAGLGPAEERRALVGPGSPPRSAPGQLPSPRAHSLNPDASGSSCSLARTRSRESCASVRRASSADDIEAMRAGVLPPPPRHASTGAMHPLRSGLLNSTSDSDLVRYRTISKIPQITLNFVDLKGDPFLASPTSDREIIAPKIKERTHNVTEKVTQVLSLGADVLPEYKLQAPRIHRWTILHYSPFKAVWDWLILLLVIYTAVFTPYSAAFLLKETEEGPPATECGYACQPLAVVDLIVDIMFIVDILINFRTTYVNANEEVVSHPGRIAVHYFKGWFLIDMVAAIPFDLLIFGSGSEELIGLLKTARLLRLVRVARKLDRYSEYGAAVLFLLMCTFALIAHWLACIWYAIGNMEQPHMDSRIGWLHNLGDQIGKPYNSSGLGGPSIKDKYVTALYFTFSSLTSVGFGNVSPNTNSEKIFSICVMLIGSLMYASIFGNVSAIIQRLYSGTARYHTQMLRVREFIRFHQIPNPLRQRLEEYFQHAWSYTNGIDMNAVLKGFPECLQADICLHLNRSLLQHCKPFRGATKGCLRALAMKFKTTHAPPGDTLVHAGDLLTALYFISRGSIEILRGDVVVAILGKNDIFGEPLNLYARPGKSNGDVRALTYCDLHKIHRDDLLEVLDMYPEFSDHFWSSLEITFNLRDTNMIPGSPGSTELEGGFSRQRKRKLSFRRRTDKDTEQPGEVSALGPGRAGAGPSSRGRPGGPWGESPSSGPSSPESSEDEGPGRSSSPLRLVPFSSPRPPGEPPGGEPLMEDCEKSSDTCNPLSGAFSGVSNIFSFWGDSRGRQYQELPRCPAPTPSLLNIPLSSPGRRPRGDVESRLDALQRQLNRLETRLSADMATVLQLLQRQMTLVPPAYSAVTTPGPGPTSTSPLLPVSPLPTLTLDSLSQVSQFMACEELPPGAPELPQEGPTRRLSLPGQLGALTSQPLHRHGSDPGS
T2 sequence (P08183 whole entry): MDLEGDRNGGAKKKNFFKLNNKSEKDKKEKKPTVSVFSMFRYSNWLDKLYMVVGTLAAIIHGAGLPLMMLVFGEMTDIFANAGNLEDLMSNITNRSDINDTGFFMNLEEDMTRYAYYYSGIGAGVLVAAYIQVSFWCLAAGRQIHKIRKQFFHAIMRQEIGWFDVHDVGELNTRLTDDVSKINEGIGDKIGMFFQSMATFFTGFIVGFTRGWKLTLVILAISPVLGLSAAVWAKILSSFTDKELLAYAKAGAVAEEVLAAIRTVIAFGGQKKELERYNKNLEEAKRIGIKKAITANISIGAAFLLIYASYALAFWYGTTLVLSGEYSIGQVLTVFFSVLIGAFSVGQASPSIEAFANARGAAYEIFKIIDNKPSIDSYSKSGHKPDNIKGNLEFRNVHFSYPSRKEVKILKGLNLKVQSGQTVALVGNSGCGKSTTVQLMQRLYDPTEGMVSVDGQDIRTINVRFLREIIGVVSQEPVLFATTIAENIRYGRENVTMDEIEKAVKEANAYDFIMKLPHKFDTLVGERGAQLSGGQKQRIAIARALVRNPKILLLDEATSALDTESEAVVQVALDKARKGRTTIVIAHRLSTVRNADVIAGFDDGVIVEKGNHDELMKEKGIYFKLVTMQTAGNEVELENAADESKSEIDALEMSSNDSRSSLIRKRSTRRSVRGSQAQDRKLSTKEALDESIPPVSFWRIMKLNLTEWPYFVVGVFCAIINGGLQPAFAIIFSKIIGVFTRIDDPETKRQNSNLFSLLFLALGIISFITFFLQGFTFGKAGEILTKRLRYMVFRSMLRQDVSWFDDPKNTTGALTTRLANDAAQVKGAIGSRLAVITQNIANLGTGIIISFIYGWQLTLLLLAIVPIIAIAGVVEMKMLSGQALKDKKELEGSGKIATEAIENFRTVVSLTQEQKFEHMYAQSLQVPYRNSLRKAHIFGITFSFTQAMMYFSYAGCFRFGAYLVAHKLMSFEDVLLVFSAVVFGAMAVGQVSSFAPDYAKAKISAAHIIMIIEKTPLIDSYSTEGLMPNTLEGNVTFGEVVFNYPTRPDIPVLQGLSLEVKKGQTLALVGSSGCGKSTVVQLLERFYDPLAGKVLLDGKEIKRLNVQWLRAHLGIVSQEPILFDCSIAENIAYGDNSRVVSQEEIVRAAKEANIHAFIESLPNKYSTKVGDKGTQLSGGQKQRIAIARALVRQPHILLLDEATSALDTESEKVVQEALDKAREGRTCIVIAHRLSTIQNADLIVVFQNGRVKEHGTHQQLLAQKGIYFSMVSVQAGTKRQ
T1 sequence (P08183 whole entry): as above

In the case of `C[C@@H]1CN(Cc2ncccn2)C[C@H]1c1cn2c(C3CCOCC3)ncc2c(=O)[nH]1` (single isomer, unassigned) [Compound P3.1], the “inhibitory effect on hERG-mediated potassium currents” value [1] was “did not have an inhibitory effect; also recorded: no inhibitory effect”, the “genotoxicity, chromosome aberration study” value [2] was “negative” and the early embryonic development [3] was “no adverse effect”. The “pre- or post-implantation loss” value [3] was “no effect”, the “eye tissue level relative to AF27873” value ([4]; 10 and 30 mg/kg/day) was 3 fold lower and the concentration at 30 min ([4]; 10 mg/kg/day) was 3.84 µM. The concentration at 30 min ([4]; 30 mg/kg/day) was 9.91 µM, the “plasma to brain ratio” value ([4]; repeated administration) was “approximately 14” and the efflux ratio [5] was 180. The “MDR1 efflux transporter substrate” value [6] was “strong MDR1 (human P-gp) efflux transporter substrate”, the microvascular stasis ([7]; 10 mg/kg/day, 10 days, 1-hour time point) was “reduced stasis statistically significantly” and the microvascular stasis ([7]; 10 mg/kg/day, 10 days, 4 hours) was “not at 4 hours”. For the same molecule, the microvascular stasis ([7]; 30 mg/kg/day Compound P3.1 or 100 mg/kg HU, drinking water, 10 days, 1 and 4 hours post hypoxia) was “statistically significant reductions in stasis”, the “total WBC numbers” value ([7]; Compound P3.1 30 mg/kg/day or HU 100 mg/kg/day, 10 days) was “reduce total WBC numbers” and the “vessel occlusion induced by transient hypoxia and re-oxygenation” value ([7]; Compound P3.1 30 mg/kg/day, HU 100 mg/kg/day, or both) was “effectively reduced”. The “number of HbF positive red cells” value [7, 15] was “increase the number of HbF positive red cells”, the “proportion of sickled RBCs” value [7, 15] was “reduce the proportion of sickled RBCs” and the “direct inhibition of 7 key CYP enzyme isoforms” value [8] was “no potential for direct inhibition”. For the same molecule, the “genotoxicity, in vivo rat micronucleus study” value [9] was “negative”, the Cl_obs ([10]; Sprague Dawley rats, 3 mg/kg IV) was 16.2 mL/min/kg and the Flast [10, 16] was 44.6%. It also gave a Vss obs [10, 16] of 44.6 L/kg, a bioavailability ([10]; Sprague Dawley, rat, plasma, po, 10 mg/kg, read-out: oral bioavailability Flast) of 63.4% and an AUC(0-t) [10, 17] of 3110 ng·h/mL. The C0 [10, 17] was 4820 ng/mL, the MRT [10, 17] was 1.44 h and the half-life [10, 17] was 2.81 h. For the same molecule, the Vd ([10]; rat, blood, Sprague Dawley rats, 3 mg/kg IV, read-out: Vss obs) was 1.65 L/kg, the AUC(0-t) [10, 18] was 4620 ng·h/mL and the C0 [10, 18] was 1110 ng/mL. The Tmax [10, 18] was 1 h, the half-life [10, 18] was 3.01 h and the “continuously exposed out to” value ([10]; rats, 10 mg/kg oral) was 8 h. For the same molecule, the AUC0-24 ([11]; male, Crl:WI(Han), po) was 198000 ng·h/mL, the Cmax ([11]; male, Crl:WI(Han), po) was 18800 ng/mL and the AUC(0-t) ([11]; male, Crl:WI(Han), po, AUC0-24) was 226000 ng·h/mL. The Cmax ([11]; male, Crl:WI(Han), po, Cmax) was 16500 ng/mL, the “Cmax and systemic exposure of Compound P3.1 in isolation vs in combination with HU” value [11] was “similar” and the HbF positive cells ([12]; 1 μM) was 68.7%. The HbF positive cells ([12]; 3 μM) was 75.6%, the HbF positive cells ([12]; 10 μM) was 85.6% and the fraction unbound [13] was 0.686. The “stability: purity and appearance of solution” value [14] was “No significant change to the purity of the compound or appearance of the solution”.
